Source: US20230295215A1, “NOVEL MRNA 5'-END CAP ANALOGS MODIFIED WITHIN PHOSPHATE RESIDUES, RNA MOLECULE INCORPORATING THE SAME, USES THEREOF AND METHOD OF SYNTHESIZING RNA MOLECULE OR PEPTIDE” (Uniwersytet Warszawski, priority 2020, published 2023)

Columns and labels:
[1] = cited from earlier work; for translation efficiency: relative to the compound without modification
[2] = test system: 3T3-L1 and JAWS II cells; assay: Gaussia luciferase protein expression from capped mRNA transfected into mammalian cells; type: cell-based, murine; conditions: mRNAs modified with the two trinucleotide cap analogs compared with each other
Experimental: Transcripts incorporating at the 5′ end compounds according to the invention or benchmark (reference) compounds were obtained using in vitro transcription method in the presence of RNA polymerase T7 and DNA template containing the […] promoter sequence for this polymerase. In order to analyze the capping efficiency, short RNA transcripts were obtained as described in Example 9. The transcription yielding RNAs of 35 nt in length was carried out in the presence of selected compounds according to the invention or reference compounds representing state of the art and containing the same modifications of phosphate groups as the analyzed compounds according to the invention. The resulting RNAs were treated with DNAzyme 10-23 in order to shorten them and reduce 3′ end heterogeneity and analyzed in 15% polyacrylamide gel, which enabled separation of capped and uncapped RNAs. In order to analyze protein expression yield in mammalian cells, mRNAs carrying compounds according to the invention or reference compounds and encoding Gaussia luciferase as a reporter gene were obtained. […] The obtained mRNAs were introduced into mammalian cell lines (fibroblasts—3T3-L1 and dendritic cells—JAWS II) using transfection with lipofectamine, followed by measuring Gaussia luciferase expression in the extracellular medium at appropriate time intervals by the luminescence method as described in Example 13. […]

In the case of `COC1C(O)C(COP(=O)(O)OP(=O)(S)OP(=O)(O)OCC2OC(n3cnc4c(=O)[nH]c(N)nc43)C(O)C2O)OC1n1c[n+](C)c2c(=O)[nH]c(N)nc21` (centres unmarked) [m2^7,2′-OGppspG D2], the translation efficiency [1] is given as “increases”.

In the case of m2^7,3′-OGppCH2pG, the protein expression ([1]; compared to mRNA obtained with m2^7,3′-OGpppG (no O by CH2 substitution)) is given as “significant reduction in protein expression” and the translation efficiency [1] is given as “decreases”.

For `CO[C@@H]1[C@H](O)[C@@H](COP(=O)(O)OP(=O)([S-])OP(=O)(O)OC[C@H]2O[C@@H](n3cnc4c(=O)[nH]c(N)nc43)[C@H](O)[C@@H]2O)O[C@H]1n1c[n+](C)c2c(O)nc(N)nc21` (stereo partly drawn) [β-S-ARCA], the “translation efficiency of mRNA” value ([1]; in vitro and in vivo) is given as “significant increase in translation efficiency”.

In the case of m^7GppCH2pAmpG, the translational properties [2] was “very similar translational properties”.
